This note sets out measurements from patent US20170107254A1, “Modified Antimicrobial Peptides” (priority 2014, published 2017).

In brackets after ≈: the same amount, converted by molar mass. Where two headings read alike, the source gives them in different places. Bounds are passed on as bounds.

One series can be described thus: in vitro. Conditions: human, A549 cells.
In series [1] the test system is C. albicans SC5314. It is filed as cell-based. The protocol:
1×RPMI-1640 Buffered with Citrate Phosphate Buffer
Citrate phosphate buffer was prepared by mixing 0.1 M citric acid and 0.2 M dibasic sodium phosphate dodecahydrate in the proportions indicated in the Table 2 and the volume adjusted to 90 ml with dH2O.
pH buffered medium was prepared by dissolving 1.04 g RPMI-1640 premix powder in 10 ml citrate phosphate buffer. The volume was then adjusted to 40 ml with dH2O and the pH adjusted by addition of the acid or base. The volume was adjusted to 50 ml with dH2O. The medium was then filter sterilized by vacuum filtration through a 0.2 μm filter and stored at 4° C. and kept for up to 2 weeks.
The pH of RPMI-1640 was altered, using citrate phosphate buffer, to reflect the more acidic pH environment in the oral cavity. NP319 and NP377 were active against C. albicans SC5314 from pH 5.5-7.0 (Table 2). For all AMPs tested the optimum pH for activity was pH 5.5. NP377 maintained activity at 2 μg/ml from pH 5.5-7 with reduced activity at pH 5.

The subject of series [2] is C. albicans SC5314. In words: MIC in the presence of 10% sterile filtered human saliva. It counts as cell-based. The protocol:
AMPs of the same sequence length were tested versus C. albicans SC5314 in the presence of 10% (v/v) filtered human saliva at pH 7.0. Positive control is 1×RPMI-1640+cells, no peptide. Data is expressed as percentage of the positive growth controls. Data is the mean±standard error of the mean. (n=3)
Determination of Minimum Inhibitory Concentration (MIC) in Presence of Sterile Filtered Saliva
To test if saliva protease could result in a reduction in AMP antifungal activity against C. albicans, antifungal susceptibility testing was conducted in the presence of 10% (v/v) sterile filtered human saliva.

In series [3] the test system is human red blood cells (hRBC). In words: Haemolysis of human red blood cells. To be noted: at 2500 μg/ml, 3 h.
Method: Peptides were tested for their haemolytic activity against human red blood cells (hRBC). Fresh hRBCs collected in BD Vacutainer® tubes with EDTA were rinsed 3 times with PBS (pH 7.4) by centrifugation for 10 min at 800 g and resuspended, 1 in 10 diluted with PBS. […] Release of haemoglobin was then calculated by transferring supernatant to a flat bottomed 96-well plate and measuring absorbance at 578 nm. hRBCs with no peptides added and H2O provided the controls.

Method for in vitro: The cell lines A549 (Human Lung Adenocarcinoma Epithelial Cell Line) and HepG2 (Human Hepatocellular Carcinoma Cell Line) were purchased from ATCC. A549 cells were maintained in F-12K medium (Gibco) containing 10% foetal bovine serum (Life Technologies) and 1% penicillin/streptomycin (Life Technologies) and HepG2 cells were maintained in Dulbecco's modified eagles medium (Gibco) containing 10% foetal bovine serum (Life Technologies), penicillin/streptomycin (Life Technologies) and 1% 0.01 mg/ml human transferrin (Sigma). Both were incubated at 37° C. with 5% CO2 until cells reached >80% confluence before splitting or experimental use.
Before exposure to peptides, the plate was incubated at 37° C. with 5% CO2 overnight to allow cells adhere. […] Medium was removed from the plate containing cells and peptide dilutions were transferred to cells and incubated for a further 3 h at 37° C. with 5% CO2. Cytotoxicity was determined by LIVE/DEAD® Viability/Cytotoxicity kit (Invitrogen Life Technologies), a working solution of 2 μM calcein AM and 4 μM EthD-1 and in conjunction Alamar Blue at a final concentration of 10% was added to the wells. Cells without peptides were the negative control and 1% DMSO was the positive control. Cells were incubated for 3 h again at 37° C. with 5% CO2.

In the series “in vitro”, `CCCCCCCCCCCCCCCC(=O)N[C@@H](CCCNC(=N)N)C(=O)N[C@@H](CCCNC(=N)N)C(=O)N[C@@H](CCCNC(=N)N)C(=O)N[C@@H](CCCNC(=N)N)C(=O)N[C@@H](CCCNC(=N)N)C(=O)N[C@@H](CCCNC(=N)N)C(=O)N[C@@H](CCCNC(=N)N)C(=O)N[C@@H](CCCNC(=N)N)C(=O)N[C@@H](CCCNC(=N)N)C(=O)N[C@@H](CCCNC(=N)N)C(=O)N[C@@H](CCCNC(=N)N)C(=O)N[C@@H](CCCNC(=N)N)C(=O)O` [C16-(Rx12)] had a CC50 at 3 h of 30 µg/mL (≈ 14.1 µM).

On to `N=C(N)NCCC[C@@H](N)C(=O)N[C@H](CCCNC(=N)N)C(=O)N[C@H](CCCNC(=N)N)C(=O)N[C@H](CCCNC(=N)N)C(=O)N[C@H](CCCNC(=N)N)C(=O)N[C@H](CCCNC(=N)N)C(=O)N[C@H](CCCNC(=N)N)C(=O)N[C@H](CCCNC(=N)N)C(=O)N[C@H](CCCNC(=N)N)C(=O)N[C@H](CCCNC(=N)N)C(=O)N[C@H](CCCNC(=N)N)C(=O)N[C@H](CCCNC(=N)N)C(=O)N[C@H](CCCNC(=N)N)C(=O)N[C@H](Cc1c[nH]cn1)C(=O)N[C@H](Cc1c[nH]cn1)C(N)=O` [NP377, dRdRdRdRdRdRdRdRdRdRdRdRdRdHdH-CONH], for which the “concentration at which activity was maintained” value with C. albicans SC5314 [1] (from pH 5.5-7) turned out to be 2 µg/mL. In addition, the MIC50 in the series on C. albicans SC5314 [1] (pH 4.5) was determined as 32 µg/mL (≈ 13.8 µM); in the series with C. albicans SC5314 [1] (pH 5), 4 µg/mL (≈ 1.72 µM); in the series on C. albicans SC5314 [1] (pH 5.5), 1 µg/mL (≈ 0.431 µM); with C. albicans SC5314 [1] (pH 6), 2 µg/mL (≈ 0.861 µM); against C. albicans SC5314 [1] (pH 6.5) it was 2 µg/mL (≈ 0.861 µM); against C. albicans SC5314 [1] (pH 7), 2 µg/mL (≈ 0.861 µM). Moreover, the MIC100 is >64 µg/mL against C. albicans SC5314 [1] (pH 4.5); 8 µg/mL (≈ 3.45 µM) in the series with C. albicans SC5314 [1] (pH 5); 2 µg/mL (≈ 0.861 µM) in the series with C. albicans SC5314 [1] (pH 5.5); 2 µg/mL (≈ 0.861 µM) in the series on C. albicans SC5314 [1] (pH 6); 2 µg/mL (≈ 0.861 µM) against C. albicans SC5314 [1] (pH 6.5); 4 µg/mL (≈ 1.72 µM) against C. albicans SC5314 [1] (pH 7). Further, the MIC100 in the series on C. albicans SC5314 [2] (10% (v/v) sterile filtered human saliva, pH 7.0) came to 2 µg/mL. Besides, the “antifungal activity in the presence of filtered human saliva” value with C. albicans SC5314 [2] (filtered human saliva) is given as “retain antifungal activity”.

For the compound `N=C(N)NCCC[C@H](NC(=O)[C@H](CCCNC(=N)N)NC(=O)[C@H](CCCNC(=N)N)NC(=O)[C@H](CCCNC(=N)N)NC(=O)[C@H](CCCNC(=N)N)NC(=O)[C@H](CCCNC(=N)N)NC(=O)[C@H](CCCNC(=N)N)NC(=O)[C@H](CCCNC(=N)N)NC(=O)[C@H](CCCNC(=N)N)NC(=O)[C@H](CCCNC(=N)N)NC(=O)[C@H](CCCNC(=N)N)NC(=O)[C@H](CCCNC(=N)N)NC(=O)[C@H](CCCNC(=N)N)NC(=O)[C@@H](N)CCCNC(=N)N)C(=O)O` [Rx14], in “in vitro”, the CC50 at 3 h is > 2500 µg/mL. In addition, the “Haemolysis RBCs % at 2500” value in series [3] came to 0%.

A word on the CC50: it is the concentration at which the toxic effect on the cells reaches its halfway point. Higher therefore signals better tolerance by the cells. In general, MIC50 refers to the lowest concentration that inhibits either 50% of growth or 50% of the strains tested, depending on the study.
